In US10053485B2, “Cytotoxic agents that preferentially target leukemia inhibitory factor (LIF) for the treatment of malignancies and as new contraceptive agents” (Evestra, Inc., priority 2015, dated 2018):

Tests used:
[1] = test system: unmodified MCF-7 human breast cancer cells; assay: LIF specificity assay, unmodified cells; format: cell-based; conditions: Homo sapiens, MCF7, cytotoxicity
[2] = test system: MDM2 / P53 in MCF-7 cells; assay: P53 / MDM2 levels in MCF-7 cells (FIG. 5); format: cell-based, human
[3] = test system: Ishikawa (Endometrial Cancer); assay: Short term (72 h) cytotoxicity assay; format: cell-based; conditions: Homo sapiens
[4] = test system: ACHN; assay: NCI-60 screen, Renal Cancer panel; format: cell-based; conditions: Homo sapiens, 48 h
[5] = test system: UACC-62; assay: NCI-60 screen, Melanoma panel; format: cell-based; conditions: Homo sapiens, UACC-62, 48 h
[6] = test system: A498; assay: NCI-60 screen, Renal Cancer panel; format: cell-based; conditions: Homo sapiens, A498, 48 h
[7] = test system: TK-10; assay: NCI-60 screen, Renal Cancer panel; format: cell-based; conditions: Homo sapiens, TK-10, 48 h
[8] = test system: SK-MEL-2; assay: NCI-60 screen, Melanoma panel; format: cell-based; conditions: Homo sapiens, SK-MEL-2, 48 h
[9] = test system: SK-OV-3; assay: NCI-60 screen, Ovarian Cancer panel; format: cell-based; conditions: Homo sapiens, SK-OV-3, 48 h
[10] = test system: human endometrial stromal cells (HESC); assay: Decidualization assay, actin cytoskeleton by phalloidin staining; format: cell-based; conditions: FIG. 3
Protocol: Decidualization studies: The above compounds were investigated originally for the treatment of endometriosis. The compounds were tested in a decidualization assay using human endometrial stromal fibroblast (HESC) cells. In preparation for the possibility of embryonic attachment, the stromal cells in the endometrium undergo extensive waves of proliferation, remodeling, and terminal differentiation that transforms the endometrium into an endocrine gland, called decidua. This transformation is called decidualization and it is under the control by ovarian hormones.
The level of apoptosis increases from the proliferative phase through menstrual cycle and peaks at menses. […] However if the cells are subjected to conditions that induce decidualization, stromal cells will begin to differentiate instead of undergoing apoptosis.
Briefly, human stromal endometrial cells were plated in the presence and absence of progesterone and allow undergoing decidualization. The cells treated with test compounds of different concentrations and stained for actin cytocketal morphology using phalloidin staining and monitored under fluorescent microscope.

[11] = test system: PC-3; assay: NCI-60 screen, Prostate Cancer panel; format: cell-based; conditions: Homo sapiens, PC-3, 48 h
[12] = test system: SMAD phosphorylation (TGF-beta); assay: Phosphorylation of SMAD; conditions: through blocking TGF-beta
[13] = test system: M14; assay: NCI-60 screen, Melanoma panel; format: cell-based; conditions: Homo sapiens, M14, 48 h
[14] = test system: A549/ATCC; assay: NCI-60 screen, Non-Small Cell Lung Cancer panel; format: cell-based; conditions: Homo sapiens, A549, 48 h
[15] = test system: EKVX; assay: NCI-60 screen, Non-Small Cell Lung Cancer panel; format: cell-based; conditions: Homo sapiens, 48 h, read-out: GI50 (log10GI50) (converted)
[16] = test system: OVCAR-8; assay: NCI-60 screen, Ovarian Cancer panel; format: cell-based; conditions: Homo sapiens, OVCAR-8, 48 h
[17] = test system: SF-268; assay: NCI-60 screen, CNS Cancer panel; format: cell-based; conditions: Homo sapiens, SF-268, 48 h
[18] = test system: MDA-MB-231 ATCC; assay: NCI-60 screen, Breast Cancer panel; format: cell-based; conditions: Homo sapiens, MDA-MB-231, 48 h
[19] = test system: human umbilical vein endothelial cells (HUVEC); assay: Matrigel in vitro HUVECs tube formation assay (angiogenesis); format: cell-based
Protocol: Matrigel in vitro HUVECs tube formation assay: The tube formation assay was performed using 12-well plate coated with 100 μL Matrigel basement membrane matrix (BD Bioscience) per well and polymerized at 37° C. for 30 min. Human umbilical vascular endothelial cells (HUVECs) suspended in M199 medium containing 2% FBS were plated on the Matrigel at a density of 2×10^5 cells/well. […] After 8 h, the Matrigel-induced morphological changes were photographed and the extent of capillary tube formation was evaluated by measuring the total tube length per field.

[20] = test system: Patient derived tumor (melanoma): p53, LIF, MDM2, pSTAT3, Ki67; assay: Immunohistochemistry analysis of patient derived tumor; format: cell-based, human; conditions: 10 nM and 1 uM for 5 days, FIG. 10
Protocol: Patient derived tumor (melanoma) was treated with the compounds at 10 nM and 1 uM for 5 days in RPMI medium and harvested on day 6 using established protocol and immunohistochemistry was performed for different antibodies including p53, LIF, MDM2, pSTAT3, Ki67.

[21] = test system: UACC-257; assay: NCI-60 screen, Melanoma panel; format: cell-based; conditions: Homo sapiens, UACC-257, 48 h
[22] = test system: NCI-H522; assay: NCI-60 screen, Non-Small Cell Lung Cancer panel; format: cell-based; conditions: Homo sapiens, NCI-H522, 48 h
[23] = test system: LNCaP (AR+ Prostate); assay: Short term (72 h) cytotoxicity assay; format: cell-based
[24] = test system: LOX IMVI; assay: NCI-60 screen, Melanoma panel; format: cell-based; conditions: Homo sapiens, 48 h
[25] = test system: LIF-overexpressing MCF-7 (MCF-7 LIF) human breast cancer cells; assay: LIF specificity assay, LIF-overexpressing cells; format: cell-based
[26] = read-out: GI50 (log10GI50) (converted)
[27] = read-out: LC50 (log10LC50) (converted)

In the case of `C#CC(F)(F)[C@]1(O)CCC2C3CCC4=CC(=O)CCC4=C3C(c3ccc(C4CC4)cc3)C[C@@]21C` (stereo partly drawn) [EC330, 17α-(1,1-difluoro-2-propyn-1-yl)-17β-hydroxy-11β-[4-p-(cyclopropyl)phenyl]estra-4,9-dien-3-one], the IC50 [1] is reported as 250 nM, the “P53 levels / MDM2” value [2] is reported as “restore P53 levels by inhibiting MDM2” and the IC50 [3] is reported as 5 nM. For the same compound, the GI50 [4, 26] was 1510 nM, the CC50 [4, 27] was greater than 100000 nM and the GI50 [5, 26] was 1950 nM. For the same compound, the CC50 [5, 27] was greater than 100000 nM, the GI50 [6, 26] was 263 nM and the CC50 [6, 27] was 3890 nM. For the same compound, the GI50 [7, 26] was 2630 nM, the CC50 [7, 27] was greater than 100000 nM and the GI50 [8, 26] was 2140 nM. The CC50 [8, 27] was 30200 nM, the GI50 [9, 26] was 117 nM and the CC50 [9, 27] was 661 nM. For the same compound, the “actin / alpha-smooth muscle mediated cytoskeletal disruption of fibroblast” value [10] was “cytoskeletal disruption”, the GI50 [11, 26] was 513 nM and the CC50 [11, 27] was greater than 100000 nM. For the same compound, the “phosphorylation of SMAD” value [12] was “indirectly diminish the phosphorylation of SMAD”, the GI50 [13, 26] was 2750 nM and the CC50 [13, 27] was greater than 100000 nM. For the same compound, the GI50 [14, 26] was 2450 nM, the CC50 [14, 27] was greater than 100000 nM and the GI50 [15] was less than 10 nM. For the same compound, the GI50 [16, 26] was 1550 nM, the CC50 [16, 27] was greater than 100000 nM and the GI50 [17, 26] was 126 nM. It also gave a CC50 [17, 27] of 1550 nM, a GI50 [18, 26] of 550 nM and a CC50 [18, 27] greater than 100000 nM. For the same compound, the tube formation ([19]; 1 μM concentration, all measured time points) was “complete abrogation”, the “angiogenesis in vitro (tube formation assay)” value ([19]; FIG. 2) was “inhibited” and the “apoptosis, p53, MDM2, LIF mediated STAT3 phosphorylation (immunohistochemistry)” value [20] was “induce apoptosis and restore p53 by inhibiting MDM2 and LIF mediated STAT3 phosphorylation”. The GI50 [21, 26] was 7080 nM, the CC50 [21, 27] was greater than 100000 nM and the GI50 [22, 26] was less than 10 nM. The CC50 [22, 27] was less than 10 nM, the IC50 [23] was 53 nM and the GI50 [24, 26] was less than 10 nM. For the same compound, the CC50 [24, 27] was less than 10 nM, the IC50 ([25]; Homo sapiens, MCF7, read-out: MCF-7 LIF IC50) was 80 nM and the “vulnerability of LIF overexpressing cells to cell death” value ([25]; LIF-overexpressing vs. unmodified MCF-7, in words) was “more vulnerable to cell death”.
